Patent US20040171086A1, “Selective modulation of TLR-mediated biological activity” (3M Innovative Properties Company, priority 2003, published 2004)

Key:
TLR7 = molecular target: T1, TLR7 (Homo sapiens, UniProt Q9NYK1); experiment: IFN-α1-luciferase reporter assay in genetically modified Namalwa cells, TLR7; format: cell-based; set-up: expressed in transfected cells; host or cells: Namalwa (ATCC CRL-1432); details: 10 μM IRM, 18 hours
T1 sequence (Q9NYK1 27-1049): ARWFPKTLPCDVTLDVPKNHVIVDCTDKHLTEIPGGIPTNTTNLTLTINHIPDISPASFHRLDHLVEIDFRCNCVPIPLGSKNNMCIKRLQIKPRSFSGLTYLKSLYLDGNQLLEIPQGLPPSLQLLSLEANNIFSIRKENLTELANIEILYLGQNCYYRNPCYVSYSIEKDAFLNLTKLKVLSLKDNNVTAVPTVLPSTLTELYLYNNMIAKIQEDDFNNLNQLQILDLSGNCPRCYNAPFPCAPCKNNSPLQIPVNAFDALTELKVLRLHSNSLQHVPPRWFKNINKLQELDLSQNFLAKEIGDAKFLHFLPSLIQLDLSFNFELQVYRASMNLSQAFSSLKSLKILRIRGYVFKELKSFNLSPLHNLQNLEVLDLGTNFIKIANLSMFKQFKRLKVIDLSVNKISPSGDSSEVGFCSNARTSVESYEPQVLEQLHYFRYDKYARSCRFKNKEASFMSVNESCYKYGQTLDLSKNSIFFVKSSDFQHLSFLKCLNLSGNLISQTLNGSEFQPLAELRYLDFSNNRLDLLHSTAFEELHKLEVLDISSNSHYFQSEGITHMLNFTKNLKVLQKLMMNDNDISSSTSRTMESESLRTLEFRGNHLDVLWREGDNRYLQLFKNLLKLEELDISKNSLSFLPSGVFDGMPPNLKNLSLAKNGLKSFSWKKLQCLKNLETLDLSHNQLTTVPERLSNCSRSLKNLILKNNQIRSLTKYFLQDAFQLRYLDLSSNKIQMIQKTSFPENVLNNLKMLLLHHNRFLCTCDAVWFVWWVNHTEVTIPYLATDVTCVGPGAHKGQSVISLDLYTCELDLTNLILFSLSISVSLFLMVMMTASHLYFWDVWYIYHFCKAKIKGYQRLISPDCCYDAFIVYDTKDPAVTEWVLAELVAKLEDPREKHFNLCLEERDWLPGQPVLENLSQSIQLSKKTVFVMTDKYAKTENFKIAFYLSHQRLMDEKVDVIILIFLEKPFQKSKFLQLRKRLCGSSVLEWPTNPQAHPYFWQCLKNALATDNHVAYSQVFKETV
Description: (§1) Results are shown in Table 6 and are expressed as fold induction of IFN-α1 —induced luciferase signal, again with respect to a vehicle control.
(§2) The assay identified TLR6-selective compounds (i.e., compounds that modulate TLR6-mediated activity, but not TLR7-mediated activity), TLR7-selective compounds (compounds that modulate TLR7-mediated activity, but not TLR6-mediated activity), and compounds that modulate cellular activity through both TLR6 and TLR7.
(§3) Unless otherwise indicated, all incubations were performed at 37° C. with 5% CO2 at 98% humidity.
(§4) Culture medium was prepared from complete RPMI 1640 medium (BioSource International, Inc., Camarillo, Calif.). Fetal bovine serum (Atlas Biologicals, Inc., Ft. Collins, Colo.) was added to a final concentration of 7.5% (vol/vol); L-glutamine (BioSource International, Inc.) was added to 5 mM; and sodium pyruvate (BioSource International, Inc.) was added to 1 mM.
Namalwa cells were grown by incubation in culture medium overnight. Cells were harvested by centrifugation in a tabletop centrifuge (1200 RPM for 5 minutes), and then resuspended in phosphate buffered sucrose to a concentration of 1.3×10^7 cells/mL. […]
(§5) The electroporated cells were suspended in 10 mLs of culture medium and incubated overnight. Dead cells and debris were removed after 24 hours using a MACS Dead Cell Removal kit (Miltenyi Biotec, Auburn, Calif.). Cells were resuspended in 10 mL of culture medium and incubated for an additional 24 hours.
(§6) Transfected cells were selected by adding G418 (Promega Corp., Madison, Wis.) to a final concentration of 1 mg/mL and incubating the cells for seven days.
(§7) The selected transfected cells were counted and resuspended to a concentration of 1×10^6 cell per mL in culture medium. 100 μl aliquots of cells were placed in the wells of a white-walled, white-bottomed 96-well plate (Corning, Inc., Corning, N.Y.). 1.0 μL of an IRM compound from Table 1 (prepared at 1 mM in 100% DMSO) was added to some cell aliquots so that the final concentration of IRM compound was 10 μM. As a positive control, some cell aliquots were incubated with Sendai virus instead of IRM compound. As a negative control, some cell aliquots were incubated with DMSO without IRM compound. In all cases, the cells were incubated for 18 hours.
(§8) The plates were equilibrated to room temperature before one volume of reconstituted LucLight Plus (Packard Instruments, Meriden, Conn.) was added to each aliquot of cells. Each well of the plate was read on an LJL Analyst (LJL Biosystems, Inc., Sunnyvale, Calif.) set with a 5 minute dark adapt. Results are shown in Table 6 and are expressed as fold increase of the IFN-αl—induced luciferase signal compared to a DMSO control.

TLR6 = molecular target: T2, TLR6 (Homo sapiens, UniProt Q9Y2C9); experiment: IFN-α1-luciferase reporter assay in genetically modified Namalwa cells, TLR6; format: cell-based; details: 10 μM IRM, 18 hours
T2 construct: expressed in transfected cells; host or cells: Namalwa (ATCC CRL-1432), pCI-TLR6 vector, G418 selected
T2 sequence (Q9Y2C9 32-796): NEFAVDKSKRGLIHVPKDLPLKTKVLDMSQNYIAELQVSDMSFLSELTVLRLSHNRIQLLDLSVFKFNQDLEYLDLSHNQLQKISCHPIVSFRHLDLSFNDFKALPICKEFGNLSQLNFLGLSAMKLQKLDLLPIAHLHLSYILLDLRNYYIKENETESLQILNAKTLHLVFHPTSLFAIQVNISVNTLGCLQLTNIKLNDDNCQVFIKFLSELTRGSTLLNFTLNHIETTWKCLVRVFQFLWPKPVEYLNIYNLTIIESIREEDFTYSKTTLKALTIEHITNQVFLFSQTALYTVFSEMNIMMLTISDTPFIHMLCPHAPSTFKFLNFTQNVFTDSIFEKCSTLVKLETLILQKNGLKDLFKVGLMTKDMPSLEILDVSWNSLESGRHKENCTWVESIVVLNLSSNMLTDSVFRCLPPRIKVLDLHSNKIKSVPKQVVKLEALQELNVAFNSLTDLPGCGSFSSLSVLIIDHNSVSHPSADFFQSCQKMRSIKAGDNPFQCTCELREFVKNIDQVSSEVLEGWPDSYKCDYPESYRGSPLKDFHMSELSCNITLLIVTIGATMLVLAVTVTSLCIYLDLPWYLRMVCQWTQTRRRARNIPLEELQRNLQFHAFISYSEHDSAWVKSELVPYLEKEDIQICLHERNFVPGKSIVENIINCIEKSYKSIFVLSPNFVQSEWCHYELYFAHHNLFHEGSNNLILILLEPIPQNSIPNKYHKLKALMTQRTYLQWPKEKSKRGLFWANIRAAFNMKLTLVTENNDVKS
Description: as §1, §2, §3, §4
Namalwa cells were grown by incubation in culture medium overnight. Cells were harvested by centrifugation in a tabletop centrifuge (1200 RPM for 5 minutes), and then resuspended in phosphate buffered sucrose to a concentration of 1.3×10^7 cells/mL.
For each transfection, a 750 μL aliquot of the cell suspension was placed in an electroporation cuvette with 4 mm gaps. 10 μg of the pIFN-α1-luc vector and 10 μg of the pCI-TLR6 vector were added to the electroporation cuvette. The cell and vector mixtures were incubated at room temperature for 5 minutes. The cells were electroporated using a BioRad Gene Pulser (BioRad Laboratories, Hercules, Calif.) set to at 500 μF capacitance and […], then incubated at room temperature for 5 minutes.
as §5, §6, §7, §8

## CCCCc1nc2c(N)nc3cccnc3c2n1CCNC(=O)c1ccc(Br)o1 [IRM23, N^2-[2-(4-amino-2-butyl-1H-imidazo[4,5-c][1,5]naphthyridin-1-yl)ethyl]-5-bromo-2-furamide]
TLR7
  TLR7: fold increase of the IFN-α1-induced luciferase signal compared to a DMSO control: 2.02 fold increase
TLR6
  TLR6: fold increase of the IFN-α1-induced luciferase signal compared to a DMSO control: 0.90 fold increase

## Nc1nc2ccccc2c2c1ncn2CCCCNC(=O)c1cccc2ccccc12 [IRM24, N^1-[4-(4-amino-1H-imidazo[4,5-c]quinolin-1-yl)butyl]-1-naphthamide]
TLR7
  TLR7: fold increase of the IFN-α1-induced luciferase signal compared to a DMSO control: 3.38 fold increase
TLR6
  TLR6: fold increase of the IFN-α1-induced luciferase signal compared to a DMSO control: 0.00 fold increase

## CN(C)c1cccc(CCCOCCn2cnc3c(N)nc4ccccc4c32)c1 [IRM25, 1-(2-{3-[3-(dimethylamino)phenyl]propoxy}ethyl)-1H-imidazo[4,5-c]quinolin-4-amine]
TLR7
  TLR7: fold increase of the IFN-α1-induced luciferase signal compared to a DMSO control: 2.89 fold increase
TLR6
  TLR6: fold increase of the IFN-α1-induced luciferase signal compared to a DMSO control: 0.04 fold increase

## CCOCc1nc2c(N)nc(C)c(C)c2n1CCNS(C)(=O)=O [IRM26, N-{2-[4-amino-2-(ethoxymethyl)-6,7-dimethyl-1H-imidazo[4,5-c]pyridin-1-yl]ethyl}methanesulfonamide]
TLR7
  TLR7: fold increase of the IFN-α1-induced luciferase signal compared to a DMSO control: 2.48 fold increase
TLR6
  TLR6: fold increase of the IFN-α1-induced luciferase signal compared to a DMSO control: 1.50 fold increase

## CCCCc1nc2c(N)nc3ccccc3c2s1 [IRM27, 2-butylthiazolo[4,5-c]quinolin-4-amine]
TLR7
  TLR7: fold increase of the IFN-α1-induced luciferase signal compared to a DMSO control: 1.32 fold increase
TLR6
  TLR6: fold increase of the IFN-α1-induced luciferase signal compared to a DMSO control: 6.28 fold increase

## Nc1nc2ccccc2c2c1ncn2CCCCNC(=O)c1cnc2ccccc2c1 [IRM28, N^3-[4-(4-amino-1H-imidazo[4,5-c]quinolin-1-yl)butyl]-3-quinolinecarboxamide]
TLR7
  TLR7: fold increase of the IFN-α1-induced luciferase signal compared to a DMSO control: 0.96 fold increase
TLR6
  TLR6: fold increase of the IFN-α1-induced luciferase signal compared to a DMSO control: 2.27 fold increase

## Nc1nc2ccccc2c2c1ncn2COCCOc1ccc([N+](=O)[O-])cc1 [IRM29, 1-{[2-(4-nitrophenoxy)ethoxy]methyl}-1H-imidazo[4,5-c]quinolin-4-amine]
TLR7
  TLR7: fold increase of the IFN-α1-induced luciferase signal compared to a DMSO control: 1.32 fold increase
TLR6
  TLR6: fold increase of the IFN-α1-induced luciferase signal compared to a DMSO control: 4.57 fold increase

## CCCCc1nc2c(N)nc3ccccc3c2n1CCCCNS(=O)(=O)c1ccc2ccccc2c1 [IRM30, N^2-[4-(4-amino-2-butyl-1H-imidazo[4,5-c]quinolin-1-yl)butyl]-2-naphthalenesulfonamide]
TLR7
  TLR7: fold increase of the IFN-α1-induced luciferase signal compared to a DMSO control: 1.28 fold increase
TLR6
  TLR6: fold increase of the IFN-α1-induced luciferase signal compared to a DMSO control: 4.38 fold increase

## Nc1nc2ccccc2c2c1ncn2CCOCc1cc2ccccc2o1 [IRM31, 1-[2-(benzo[b]furan-2-ylmethoxy)ethyl]-1H-imidazo[4,5-c]quinolin-4-amine]
TLR7
  TLR7: fold increase of the IFN-α1-induced luciferase signal compared to a DMSO control: 1.63 fold increase
TLR6
  TLR6: fold increase of the IFN-α1-induced luciferase signal compared to a DMSO control: 3.40 fold increase

## CCCCc1nc2c(N)nc3ccccc3c2n1CCCNC(=O)Nc1ccccc1 [IRM32, N-[3-(4-amino-2-butyl-1H-imidazo[4,5-c]quinolin-1-yl)propyl]-N′-phenylurea]
TLR7
  TLR7: fold increase of the IFN-α1-induced luciferase signal compared to a DMSO control: 1.77 fold increase
TLR6
  TLR6: fold increase of the IFN-α1-induced luciferase signal compared to a DMSO control: 7.47 fold increase

## Cc1nc(N)c2nc(C)n(CCCCCS(=O)(=O)c3ccccc3)c2c1C [IRM33, 1-(5-benzenesulfonyl-pentyl)-2,6,7-trimethyl-1H-imidazo[4,5-c]pyridin-4-ylamine]
TLR7
  TLR7: fold increase of the IFN-α1-induced luciferase signal compared to a DMSO control: 1.99 fold increase
TLR6
  TLR6: fold increase of the IFN-α1-induced luciferase signal compared to a DMSO control: 13.12 fold increase

## Cc1nc2c(N)nc3ccccc3c2n1CC(C)(C)O [IRM34, 4-amino-α,α,2-trimethyl-1H-imidazo[4,5-c]quinoline-1-ethanol]
TLR7
  TLR7: fold increase of the IFN-α1-induced luciferase signal compared to a DMSO control: 3.37 fold increase
TLR6
  TLR6: fold increase of the IFN-α1-induced luciferase signal compared to a DMSO control: 10.80 fold increase
